Data published in patent US12257280B2, “Composition for preventing or treating muscular diseases, containing, as active ingredient, Glycyrrhiza uralensis extract or compound isolated therefrom” (NEO CREMAR CO., LTD., priority 2019, dated 2025).

Tests used:
C2C12 cells [1] = experiment: Myoblast proliferation verification (MTT assay) in C2C12 cells; format: cell-based, mouse; conditions: for increased proliferation of cells compared to untreated cells: isolated final compounds, 0.5 ng/ml, 1 day, MTT (FIG. 7a)
Procedure: C2C12 cells, a mouse myoblast cell line, were cultured in Dulbecco's Modified Eagle's Medium (DMEM) containing 10% Fetal bovine serum (FBS) and 1% Penicillin/streptomycin (P/S).
To verify cell proliferation, the cell culture medium was removed and the cells was washed with DMEM, and then 500 μl of MTT reagent (0.5 mg/ml) dissolved in phosphate buffered saline (PBS) was added to each well and left for 1 hour at 37° C. The reaction solution was removed and 1000 μl of dimethyl sulfoxide (DMSO) was added to each well. Purple formazan crystals were completely dissolved in DMSO and absorbance was measured at 540 nm.

C2C12 cells [2] = experiment: Differentiation of myoblasts into myotubes (Giemsa stain, fusion index); format: cell-based, mouse
Procedure: The medium was changed every 2 days and the cells were cultured at 37° C. The medium of the cells was removed and the cells were washed with PBS. After washing, a 1:1 volume ratio of methanol:PBS was treated and then fixed for 2 minutes. Additionally, a 2:1 volume ratio of methanol:PBS reagent was added, followed by further fixation for 2 minutes. After 2 minutes, 0.04% Giemsa reagent was added, allowed to stand for 30 minutes, washed with PBS after 30 minutes, and then the appearance of the cells was observed under a microscope, and three photos of the cells were taken (300×). In the photographs taken, the number of fused nuclei in the myotube cells was counted, the total number of nuclei was counted, and the number of fused nuclei was divided by the total number of nuclei to calculate % value.

C57BL/6 mice = experiment: Muscle regeneration effect in mice with or without cardiotoxin (CTX) injection into gastrocnemius muscle; format: in vivo, mouse
Procedure: In order to observe the muscle regeneration effect according to the treatment of hot water extract of licorice or the final substance liquiritigenin, the mice were ingested with licorice hot water extract or liquiritigenin and Cardiotoxin (CTX) was/was not injected into the muscle and then the morphology and regeneration of the muscles were observed. C57BL/6 mice were ingested with licorice hot water extract (100 mg/kg) or liquiritigenin (15 mg/kg) and […] cardiotoxin was injected into the gastrocnemius muscle. After cardiotoxin injection, licorice hot water extract or liquiritigenin was ingested every day, and muscle tissue was sampled 7 days after non-injection or injection of cardiotoxin. The diameter (μm) of the muscle secured 7 days after non-injection or injection of cardiotoxin was measured using an image J program.

[3] = isolated final compounds, 0.25 ng/ml (FIG. 7b)
[4] = purchased compounds, 0.25 ng/ml (FIG. 7c)
[5] = purchased compound, 15 mg/kg ingested daily

Row | Compound | increased proliferation of cells compared to untreated cells (C2C12 cells [1]) [%] | proliferation of cells increased compared to non-treated cells (C2C12 cells [1]; purchased compound, 1 ng/ml (FIG. 7c)) [%] | myotube formation and fusion index increase (C2C12 cells [2]; [3]) [%] | myotube formation and fusion index increase (C2C12 cells [2]; purchased compounds (FIG. 7d)) [%] | proliferation of cells increased compared to non-treated cells (C2C12 cells [1]; [4]) [%] | diameter of the regenerated muscle (C57BL/6 mice; 15 mg/kg, CTX-injected, 7 days, not ingested 78±4) [μm] | muscle diameter (muscle fiber size) (C57BL/6 mice; 15 mg/kg, second pair of values, apparently non-injected muscle, not ingested 124±4) [μm] | body and gastrocnemius muscle weights vs non-treated controls (C57BL/6 mice; [5]) | muscle mass reductions vs non-treated controls (C57BL/6 mice; [5])
1 | COc1c(/C=C/C(=O)c2ccc(O)cc2)ccc(O)c1O [licochalcone B, Licochalcone B] | 11 | 11 | 19 | 20 |  |  |  |  | 
2 | O=C1C[C@@H](c2ccc(O)cc2)Oc2cc(O)ccc21 [liquiritigenin, Liquiritigenin] | 10 |  | 13 | 20 | 5 | 91±3 | 139±4 | similar | less
3 | COc1c(/C=C/C(=O)c2ccc(O)c(O)c2)ccc(O)c1O [tetrahydroxymethoxychalcone, Tetrahydroxy methoxychalcone] | 8 |  | 28 | 23 | 5 |  |  |  | 
